Reference: ChEMBL document CHEMBL2169824, “The many faces of the adamantyl group in drug design” (Eur J Med Chem, 2011)
≈ marks a conversion by molar mass, not a printed value.

How the values were obtained:
[1] = tested on: Mus musculus; test: Anticonvulsant activity in mouse at 30 mg/kg; assay type: functional
[2] = Inhibition of globotriaosyl ceramide binding to Escherichia coli Verotoxin 1
[3] = Ratio of drug level in liver to blood in human; assay type: ADME, tissue-based
[4] = Drug elimination in po dosed human assessed as unchanged compound level; assay type: ADME, organism-based; conditions: in vivo, read-out: Drug excretion
[5] = Drug excretion in human urine assessed as unchanged compound level; assay type: ADME; conditions: read-out: Drug excretion
[6] = Half life in plasma; assay type: ADME, cell-free
[7] = target: Carbonic anhydrase 2 (Homo sapiens, UniProt P00918); test: Inhibition of human CA2
[8] = Displacement of [125I]neurotensin from neurotensin receptor 1 in guinea pig brain; parameters: species or system Cavia porcellus
[9] = Solubility in water; assay type: physicochemical
[10] = tested on: Enterococcus faecium; test: Antimicrobial activity against vancomycin-resistant Enterococcus faecium; assay type: functional
[11] = tested on: Staphylococcus aureus; test: Antimicrobial activity against methicillin-resistant Staphylococcus aureus; assay type: functional
[12] = target: T1, Mediator of RNA polymerase II transcription subunit 23 (Homo sapiens, UniProt Q9ULK4); test: Binding affinity to Sur2
T1 sequence (Q9ULK4 whole entry): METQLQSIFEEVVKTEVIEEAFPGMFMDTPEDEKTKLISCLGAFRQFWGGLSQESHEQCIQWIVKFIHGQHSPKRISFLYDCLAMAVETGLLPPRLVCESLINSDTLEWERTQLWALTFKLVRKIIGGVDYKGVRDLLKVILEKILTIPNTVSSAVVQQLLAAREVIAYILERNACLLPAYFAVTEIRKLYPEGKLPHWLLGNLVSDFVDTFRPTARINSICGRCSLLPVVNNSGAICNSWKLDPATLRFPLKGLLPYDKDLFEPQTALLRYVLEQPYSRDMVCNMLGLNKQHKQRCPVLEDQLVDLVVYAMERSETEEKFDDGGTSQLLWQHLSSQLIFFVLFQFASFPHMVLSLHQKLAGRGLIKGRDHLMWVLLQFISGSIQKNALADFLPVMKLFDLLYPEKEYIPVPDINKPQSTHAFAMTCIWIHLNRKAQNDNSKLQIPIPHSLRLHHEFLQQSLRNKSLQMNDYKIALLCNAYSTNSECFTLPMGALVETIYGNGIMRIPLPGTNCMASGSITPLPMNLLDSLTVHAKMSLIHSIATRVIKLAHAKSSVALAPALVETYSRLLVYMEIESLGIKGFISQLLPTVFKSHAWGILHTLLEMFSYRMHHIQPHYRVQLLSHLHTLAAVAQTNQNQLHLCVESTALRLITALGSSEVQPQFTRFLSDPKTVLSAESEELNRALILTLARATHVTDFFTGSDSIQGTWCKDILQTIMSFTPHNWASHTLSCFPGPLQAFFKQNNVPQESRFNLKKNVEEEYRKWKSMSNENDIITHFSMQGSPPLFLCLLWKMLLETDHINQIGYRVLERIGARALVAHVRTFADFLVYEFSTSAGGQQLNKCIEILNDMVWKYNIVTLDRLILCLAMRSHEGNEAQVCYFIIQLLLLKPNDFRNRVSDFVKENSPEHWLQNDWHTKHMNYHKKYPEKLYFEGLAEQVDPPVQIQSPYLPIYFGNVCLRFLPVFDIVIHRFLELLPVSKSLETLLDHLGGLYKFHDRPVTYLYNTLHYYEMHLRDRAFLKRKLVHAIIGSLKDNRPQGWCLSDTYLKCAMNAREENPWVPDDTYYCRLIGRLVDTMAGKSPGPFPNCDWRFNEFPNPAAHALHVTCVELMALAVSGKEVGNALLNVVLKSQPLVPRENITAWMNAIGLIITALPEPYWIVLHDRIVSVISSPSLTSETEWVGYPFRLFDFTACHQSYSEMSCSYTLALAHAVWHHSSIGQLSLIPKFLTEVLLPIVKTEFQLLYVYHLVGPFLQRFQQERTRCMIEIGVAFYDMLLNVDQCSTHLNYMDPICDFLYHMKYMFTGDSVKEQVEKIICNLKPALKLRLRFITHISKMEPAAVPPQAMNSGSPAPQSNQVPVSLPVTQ

[13] = tested on: HCT-116; test: Antitumor activity against human HCT116 cells xenografted in athymic mouse assessed as reduction tumor size at 20 mg/kg, qd; assay type: functional; parameters: scale not given: the % may be the effect or the level left
[14] = target: Mu-type opioid receptor (Homo sapiens, UniProt P35372); test: Antagonist activity at MOR; assay type: functional
Sequence of Mu-type opioid receptor (P35372 whole entry): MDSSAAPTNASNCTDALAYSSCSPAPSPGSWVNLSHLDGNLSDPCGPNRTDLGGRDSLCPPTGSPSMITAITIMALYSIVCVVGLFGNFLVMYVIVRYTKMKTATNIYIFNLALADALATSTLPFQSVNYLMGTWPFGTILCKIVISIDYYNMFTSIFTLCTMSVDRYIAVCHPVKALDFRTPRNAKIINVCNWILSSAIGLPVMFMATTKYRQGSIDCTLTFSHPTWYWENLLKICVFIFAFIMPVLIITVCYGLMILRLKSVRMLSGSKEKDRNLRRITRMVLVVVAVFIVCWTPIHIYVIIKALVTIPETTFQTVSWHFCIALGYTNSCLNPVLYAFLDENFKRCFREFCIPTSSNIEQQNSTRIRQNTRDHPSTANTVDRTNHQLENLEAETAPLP

[15] = target: Delta-type opioid receptor (Homo sapiens, UniProt P41143); test: Antagonist activity at DOR; assay type: functional
Sequence of Delta-type opioid receptor (P41143 whole entry): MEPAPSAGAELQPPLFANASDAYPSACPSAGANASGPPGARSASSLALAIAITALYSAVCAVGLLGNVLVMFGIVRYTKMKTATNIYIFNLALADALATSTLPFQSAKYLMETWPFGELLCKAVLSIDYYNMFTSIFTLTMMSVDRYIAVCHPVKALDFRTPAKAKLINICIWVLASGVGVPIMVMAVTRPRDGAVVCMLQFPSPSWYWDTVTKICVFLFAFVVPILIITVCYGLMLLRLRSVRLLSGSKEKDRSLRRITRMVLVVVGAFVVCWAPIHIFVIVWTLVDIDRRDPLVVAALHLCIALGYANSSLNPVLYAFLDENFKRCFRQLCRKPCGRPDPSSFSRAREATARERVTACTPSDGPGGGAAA

[16] = Inhibition of Beta-glucocerebrosidase G202R mutant in cell based assay
[17] = tested on: T2, Lysosomal acid glucosylceramidase (Homo sapiens), P04062 [N409S]; test: Inhibition of Beta-glucocerebrosidase N370S mutant in cell based assay
T2 sequence (whole entry): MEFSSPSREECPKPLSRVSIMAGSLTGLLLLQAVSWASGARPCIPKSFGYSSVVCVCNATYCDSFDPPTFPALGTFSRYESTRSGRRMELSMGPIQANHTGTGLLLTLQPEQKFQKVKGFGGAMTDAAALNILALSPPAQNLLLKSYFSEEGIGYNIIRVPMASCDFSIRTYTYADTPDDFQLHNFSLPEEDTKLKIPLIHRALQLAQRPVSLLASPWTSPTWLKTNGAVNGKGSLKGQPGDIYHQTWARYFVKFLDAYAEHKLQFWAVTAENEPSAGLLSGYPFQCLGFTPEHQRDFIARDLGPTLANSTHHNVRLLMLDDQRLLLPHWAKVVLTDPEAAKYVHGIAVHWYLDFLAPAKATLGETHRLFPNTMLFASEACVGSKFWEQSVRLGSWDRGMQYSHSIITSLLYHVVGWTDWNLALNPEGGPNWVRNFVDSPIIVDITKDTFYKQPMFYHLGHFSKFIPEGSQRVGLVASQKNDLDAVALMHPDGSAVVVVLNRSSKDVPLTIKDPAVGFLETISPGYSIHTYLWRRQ

[18] = target: T3, Vitamin D3 receptor (Homo sapiens, UniProt P11473); test: Transactivation of VDR expressed in COS7 cells assessed as reduction in 1,25-dihydroxyvitamin D3-induced transcriptional activity by transient transcription assay; assay type: cell-based, COS-7
T3 sequence (P11473 whole entry): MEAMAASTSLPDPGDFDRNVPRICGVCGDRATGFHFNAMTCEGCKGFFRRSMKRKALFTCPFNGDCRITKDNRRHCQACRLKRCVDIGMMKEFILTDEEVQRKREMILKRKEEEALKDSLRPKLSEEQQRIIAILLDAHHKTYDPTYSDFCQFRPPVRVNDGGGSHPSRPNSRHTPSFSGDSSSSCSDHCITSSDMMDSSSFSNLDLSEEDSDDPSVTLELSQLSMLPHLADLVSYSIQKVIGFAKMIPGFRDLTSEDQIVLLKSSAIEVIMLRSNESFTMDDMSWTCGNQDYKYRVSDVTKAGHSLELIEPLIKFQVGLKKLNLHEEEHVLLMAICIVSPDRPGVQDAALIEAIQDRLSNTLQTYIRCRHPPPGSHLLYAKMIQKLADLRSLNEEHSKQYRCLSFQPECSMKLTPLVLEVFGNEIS

[19] = Volume of distribution in mouse; assay type: ADME, organism-based; conditions: in vivo
[20] = tested on: Mycobacterium tuberculosis; test: Antimicrobial activity against Mycobacterium tuberculosis H37Rv; assay type: functional
[21] = Protein binding in plasma; assay type: ADME, cell-free; conditions: read-out: PPB (converted)
[22] = Half life in human plasma; assay type: ADME, cell-free

Question: For NS(=O)(=O)c1nnc(NC(=O)CC23CC4CC(CC(C4)C2)C3)s1, which Activity [1] is on record?
Answer: 75%

Question: With CCCCCCCCCCCCC/C=C/C(O)C(CO[C@@H]1O[C@H](CO)[C@@H](O[C@@H]2O[C@H](CO)[C@H](O[C@H]3O[C@H](CO)[C@H](O)[C@H](O)[C@H]3O)[C@H](O)[C@H]2O)[C@H](O)[C@H]1O)NC(=O)CC12CC3CC(CC(C3)C1)C2 (stereo partly drawn) as the molecule, how does the IC50 [2] read?
Answer: 10000 nM

Question: With CN(C)CCOCC(=O)NC12CC3CC(CC(C3)C1)C2 [TROMANTADINE] as the molecule, how does the Kp [3] read?
Answer: 19

Question: And the dose excreted [4]?
Answer: 30%

Question: With NC12CC3CC(CC(C3)C1)C2 [AMANTADINE] as the molecule, how does the dose excreted [5] read?
Answer: 65%

Question: With CC(C)NCC(O)COc1ccc(CC(=O)OCCC23CC4CC(CC(C4)C2)C3)cc1 (stereo not drawn) [ADAPROLOL] as the molecule, how does the half-life [6] read?
Answer: 6.9 min

Question: Which Activity [1] does the source give for NS(=O)(=O)c1nnc(NC(=O)NC23CC4CC(CC(C4)C2)C3)s1 here?
Answer: 47%

Question: What about the Ki [7] of the same molecule?
Answer: 13 nM

Question: Which IC50 [8] does the source give for COc1cccc(OC)c1-c1cc(C(=O)NC2(C(=O)O)C3CC4CC(C3)CC2C4)nn1-c1ccnc2cc(Cl)ccc12 (stereo not drawn) [REMINERTANT] here?
Answer: 0.99 nM

Question: Which solubility [9] does the source give for O=C(O)CCCCCCCCCCCNC(=O)NC12CC3CC(CC(C3)C1)C2 here?
Answer: 19 µg/mL (≈ 48.4 µM)

Question: For C[C@@]1(CCC(=O)Nc2c(O)ccc(C(=O)O)c2O)C(=O)C=CC23CC4CC(CC(C4)C21)C3 (stereo partly drawn), which MIC [10] is on record?
Answer: 1.3 µg/mL (≈ 2.96 µM)

Question: And the MIC [11]?
Answer: 1.3 µg/mL (≈ 2.96 µM)

Question: With CC(=O)N(O)CCCCCNC(=O)CCC(=O)N(O)CCCCCNC(=O)CCC(=O)N(O)CCCCCN [DEFEROXAMINE] as the molecule, how does the half-life [6] read?
Answer: 5 min

Question: For Cc1ccc(S(=O)(=O)n2ccc3c(OCC(O)CN(CCCCCN)C(=O)N4CCC(C5CCN(C(=O)C67CC8CC(CC(C8)C6)C7)CC5)CC4)cccc32)cc1 (stereo not drawn) [WRENCHNOLOL], which Kd [12] is on record?
Answer: 1800 nM

Question: What does the source list for NS(=O)(=O)c1nnc(NC(=O)OC23CC4CC(CC(C4)C2)C3)s1?
Answer: Activity [1]: 92%; Ki [7]: 10 nM

Question: For COC(=O)c1ccc(O)c(NC(=O)COc2ccc(C34CC5CC(CC(C5)C3)C4)cc2)c1, which Activity [13] is on record?
Answer: 53%

Question: Which results are given for Cc1cc(O)cc(C)c1C[C@H](N)C(=O)N1Cc2ccccc2C[C@H]1C(=O)NC12C[C@H]3C[C@@H](C1)C[C@@H](C2)C3?
Answer: Ki [14]: 85.5 nM; Ki [15]: 1.24 nM

Question: What does the source list for O=C(CCCCCN1C[C@H](O)[C@@H](O)[C@H](O)[C@H]1CO)NC12CC3CC(CC(C3)C1)C2?
Answer: INH [16]: > 1 µM; INH [17]: > 1 µM

Question: With C=C1[C@H](O)CC(=C/C=C2\CCC[C@]3(C)[C@@H]([C@H](C)/C=C/C[C@H](O)CC45CC6CC(CC(C6)C4)C5)CC[C@@H]23)C[C@H]1O as the molecule, how does the IC50 [18] read?
Answer: 3 nM

Question: For CC(C)=CCC/C(C)=C/CNCCNC1C2CC3CC(C2)CC1C3 (stereo not drawn) [SQ109], which Vd [19] is on record?
Answer: 11.8 L/kg

Question: And the MIC [20]?
Answer: 1.56 µM (≈ 0.516 µg/mL)

Question: For CC12C[C@@]34C=CC(=O)[C@@](C)(CCC(=O)Nc5c(O)ccc(C(=O)O)c5O)C3[C@H](CC1C4)O2 (stereo partly drawn) [PLATENSIMYCIN], which MIC [10] is on record?
Answer: 0.2 µg/mL (≈ 0.453 µM)

Question: And the MIC [11]?
Answer: 0.2 µg/mL (≈ 0.453 µM)

Question: Which fraction unbound [21] does the source give for N#C[C@@H]1C[C@@H]2C[C@@H]2N1C(=O)[C@@H](N)C12CC3CC(CC(O)(C3)C1)C2 [SAXAGLIPTIN ANHYDROUS] here?
Answer: 0.7

Question: With CC(N)C12CC3CC(CC(C3)C1)C2 (stereo not drawn) [RIMANTADINE] as the molecule, how does the half-life [22] read?
Answer: 1440 min
